Source: US4690925A, “(2-Oxo-1,2,3,5-tetrahydroimidazo-[2,1-B]quinazolinyl) oxyalkylamides properties having phosphodiosterase inhibiting” (Syntex (U.S.A.) Inc., priority 1985, dated 1987)

Columns and labels:
[1] = test system: Soluble dog heart PDE; test: Cyclic AMP phosphodiesterase inhibition, soluble dog heart PDE (Table I); assay type: biochemical; conditions: soluble dog heart PDE (footnote a)
Experimental: (§1) The inhibition of cyclic AMP phosphodiesterase activity by the subject compounds was assayed by the method of Filburn and Karn, Analyt. Biochem., 52: 505-516 (1973), using 1 μM cyclic AMP as the substrate. Human platelet cyclic AMP phosphodiesterase was obtained from human donors. Platelets were isolated and washed by centrifugation, the membranes ruptured by a sequential freeze-thaw procedure and hypotonic lysis and the soluble enzyme isolated by high speed centrifugation. The enzyme was stored in aliquots at -20° C.
(§2) This table contains the IC50 values for human platelet phosphodiesterase and IC25 values for rat heart phosphodiesterase.
^a Soluble dog heart PDE

[2] = biological target: T1, Human platelet cyclic AMP phosphodiesterase (Homo sapiens, UniProt Q14432); test: Cyclic AMP phosphodiesterase assay, human platelet enzyme (Table I); assay type: biochemical; conditions: for IC50: 1 μM cyclic AMP as substrate, soluble enzyme from human platelets, read-out: Human Platelet IC50 (inhibition of cyclic AMP phosphodiesterase); for Relative Potency: relative to theophylline, which is assigned a value of 1 on human platelet phosphodiesterase
T1 construct: from tissue; host or cells: human platelets from donors, soluble fraction after freeze-thaw and hypotonic lysis
T1 sequence (Q14432 whole entry): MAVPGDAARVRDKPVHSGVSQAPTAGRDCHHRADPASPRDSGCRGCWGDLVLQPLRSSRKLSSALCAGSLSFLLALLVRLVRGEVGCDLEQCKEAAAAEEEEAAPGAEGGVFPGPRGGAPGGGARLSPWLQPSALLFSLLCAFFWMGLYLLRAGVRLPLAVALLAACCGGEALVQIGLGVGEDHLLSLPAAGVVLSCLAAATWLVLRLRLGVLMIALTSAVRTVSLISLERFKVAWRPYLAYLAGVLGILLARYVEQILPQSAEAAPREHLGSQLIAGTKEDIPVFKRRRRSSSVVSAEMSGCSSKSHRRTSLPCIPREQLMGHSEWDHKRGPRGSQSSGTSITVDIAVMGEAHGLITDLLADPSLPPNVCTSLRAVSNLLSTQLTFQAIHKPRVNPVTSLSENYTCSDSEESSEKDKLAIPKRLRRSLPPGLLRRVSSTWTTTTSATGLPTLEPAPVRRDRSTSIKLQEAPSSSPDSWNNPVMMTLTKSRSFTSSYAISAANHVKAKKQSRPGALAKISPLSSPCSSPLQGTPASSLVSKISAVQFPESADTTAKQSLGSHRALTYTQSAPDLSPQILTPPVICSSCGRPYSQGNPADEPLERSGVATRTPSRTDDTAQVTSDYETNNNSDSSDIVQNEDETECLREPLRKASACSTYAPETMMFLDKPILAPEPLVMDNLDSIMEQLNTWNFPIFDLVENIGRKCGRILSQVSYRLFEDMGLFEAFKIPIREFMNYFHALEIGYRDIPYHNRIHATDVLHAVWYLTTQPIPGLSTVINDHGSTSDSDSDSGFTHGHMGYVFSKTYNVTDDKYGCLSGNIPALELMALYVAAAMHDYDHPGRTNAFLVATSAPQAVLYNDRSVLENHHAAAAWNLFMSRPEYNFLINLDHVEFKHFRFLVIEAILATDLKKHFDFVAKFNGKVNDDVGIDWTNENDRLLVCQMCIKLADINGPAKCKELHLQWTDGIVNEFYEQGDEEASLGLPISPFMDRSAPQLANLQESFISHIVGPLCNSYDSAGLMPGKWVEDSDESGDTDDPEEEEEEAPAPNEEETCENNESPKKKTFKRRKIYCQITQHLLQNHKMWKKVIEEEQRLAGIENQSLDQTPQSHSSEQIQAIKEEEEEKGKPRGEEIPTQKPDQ
Experimental: as §1, §2

[3] = test system: Soluble rat heart PDE; test: Cyclic AMP phosphodiesterase inhibition, soluble rat heart PDE (Table I); assay type: biochemical; conditions: soluble rat heart PDE (footnote b)
Experimental: as §1, §2
^b Soluble rat heart PDE

[4] = test system: Mongrel dogs; test: Inotropic activity in anesthetized mongrel dogs (Table II); assay type: in vivo, dog; conditions: 1 mg/kg i.v., suspended in carboxymethylcellulose, vagotomized dogs
Experimental: Mongrel dogs were anesthetized intravenously with 35 mg/kg sodium pentobarbital and supplemented as needed. Blood pressure was measured with a Statham pressure transducer via a cannula inserted from a femoral artery into the abdominal aorta. Heart rate was recorded by a cardiotachometer from a lead II electrocardiogram. Right ventricular contractile force was recorded from a Walton-Brodie strain gauge sutured to the right ventricle following a midsternal thoracotomy. A Harvard respirator was used to ventilate the dogs with room air through an endotracheal tube. Each dog was bilaterally vagotomized. Following a midline laparotomy, a cannula was sutured into the duodenum for intraduodenal administration of test compound. A femoral vein was cannulated for administration of isoproterenol. All data were recorded on a Beckman R611 Dynograph.
To assess the responsiveness of each dog, isoproterenol was given intravenously at half-log interval doses from 0.007 to 6.67 μg/kg. The test compound was then administered intravenously at 1 mg/kg.

[5] = test system: Lewis Lung Carcinoma; test: Antimetastatic activity against Lewis Lung Carcinoma (spontaneous metastases) (Table III); assay type: in vivo, mice (female, C57B1/6); conditions: 5 mg/kg oral, every other day, 20 to 21 days
Experimental: Mice (female, C57B1/6, 16-18 g) were inoculated subcutaneously between the inguinal and axillary areas with 0.2 ml of a freshly prepared tumor brei. Control mice were treated with vehicle. Other mice were treated orally with test compound in suspension in 0.5% carboxymethylcellulose (CMC). Treatments were initiated one day after tumor implanation, and continued every other day throughout the experiment. 20 to 21 days after implantation of the tumor, mice were sacrificed, the primary tumor was weighed, and the number of lung metastases was determined by counting under a dissecting microscope.

Structure (SMILES) | Heart IC25 (inhibition of cyclic AMP phosphodiesterase), soluble dog heart PDE [1] | IC50 [2] | Relative Potency [2] | Heart IC25 (inhibition of cyclic AMP phosphodiesterase), soluble rat heart PDE [3] | Blood Pressure, peak effect [4] | Heart Rate, peak effect [4] | Rt. Ventricular Contractile Force, peak effect [4] | Number of Pulmonary Metastases, Range ([5]; control range 0-29) | Number of Pulmonary Metastases, Median ([5]; p < 0.05, control median 5)
NC(=O)CN(C(=O)CCCOc1ccc2c(c1)CN1CC(=O)NC1=N2)C1CCCCC1 [2-(N-cyclohexyl-4-(2-oxo-1,2,3,5-tetrahydroimidazo[2,1-b]quinazolin-7-yl)oxybutyramidyl)acetamide] | 100 nM | 11 nM | 24,500 |  |  |  |  |  | 
O=C(O)CN(C(=O)CCCOc1ccc2c(c1)CN1CC(=O)NC1=N2)C1CCCCC1 [2-(N-cyclohexyl-4-(2-oxo-1,2,3,5-tetrahydroimidazo[2,1-b]quinazolin-7-yl)oxybutyramidyl)acetic acid] |  | 5 nM | 54,000 | 100 nM | 32 % of Max. Isoproterenol | 30 % of Max. Isoproterenol | 33 % of Max. Isoproterenol | 0-11 | 0
COC(=O)CN(C(=O)CCCOc1ccc2c(c1)CN1CC(=O)NC1=N2)C1CCCCC1 [Methyl 2-(N-cyclohexyl-4-(2-oxo-1,2,3,5-tetrahydroimidazo[2,1-b]quinazolin-7-yl)oxybutyramidyl)acetate] | 10.0 nM | 2 nM | 135,000 |  |  |  |  |  | 
